Values of other authors in patent US20070148722A1, “Method for determining the concentration of thrombin inhibitors” (priority 1999, published 2007).

Molecular target: meizothrombin (Homo sapiens, UniProt P00734)
Details: theoretical background statement; affinity to atypical intermediate meizothrombin

Ki: > 0.1 nM
Substance: hirudin
